Experimental data reported in patent EP1641803B1, “THIENOPYRIMIDINE DERIVATIVES AS POTASSIUM CHANNEL INHIBITORS” (Xention Limited, priority 2003, dated 2004).

Columns and labels:
[1] = target: hKv1.5 (Homo sapiens, UniProt P22460); experiment: Kv1.5 Autopatch Electrophysiology (whole cell patch-clamp); assay type: cell-based; settings: compound at 1µM, room temperature (22-24°C), held at -80mV, step to 0mV for 1000ms, total charge measured
Protocol: The external bathing solution contained (in mM): 150 NaCl, 10 KCl, […], 3 MgCl2, 1 CaCl2, 10 HEPES, pH 7.4. Patch pipettes were filled with an electrode solution of composition (in mM): 160 KCl, 0.5 MgCl2, 10 HEPES, 1 EGTA, pH 7.4 with KOH.
Compounds were dissolved in DMSO (100 %) and made up in the external bather at a concentration of 1µM. All experiments were conducted at room temperature (22-24°C).
A cell suspension (10 ml), with a density of 100,000 cells/ml, was aliquoted into a 15ml centrifuge tube and transferred to an incubator (37°C, 5% CO2) for approximately one hour before use. Following 60 min incubation, a tube was taken and centrifuged at 1000 rpm for 4 mins at room temperature. 9.5 ml supernatant was thence discarded, leaving a cell pellet at the bottom of the tube. The pellet was then resuspended using 100 µl of cold (4 °C), filtered (0.22 µm), 0.2 % BSA/bather solution (0.02g BSA/10ml bather). The bottom of the tube was manually agitated gently until the solution became cloudy with cells. The 100 µl cell resuspension solution was then stored on the bench at 4 °C (using a Peltier-based temperature control device) until used.
A length of capillary glass (1B150F-4, WPI) was dipped into the cell suspension solution, such that - 3 cm column of fluid was taken up by capillary action. A Ag/AgCl wire was dropped into the non-dipped end of the capillary also. The outside of the solution-filled end of the capillary was then dried and the capillary was loaded into the AutoPatch™. Borosilicate glass patch pipettes (from 1.5mm OD, thin-walled filamented, GC150-TF capillary glass, Harvard) were pulled using a DMZ pipette puller (Zeitz Instruments), and were back-filled using the internal pipette solution, being careful that no bubbles remain at the tip or in the body of the pipette. Patch pipettes typically had resistances of 2.3-3.5 MΩ. Once filled, the pipette tip and a proportion of the shaft (- 15 mm) were dipped into Sigmacote (Sigma). The recording pipette was then loaded into the AutoPatch™.
Automated patch-clamping was initiated by the operator, but thereafter AutoPatch.exe continued the experiment providing that pre-set conditions and criteria were satisfied.
Whole cell patch-clamp recordings were made using the AutoPatch™ rig, which incorporated an EPC9 amplifier (HEKA, Germany) under control of Pulse software (v8.54, HEKA, Germany), a motion controller with 2 translators (Newport, UK), valve controller (VF1) and a c-level suction device all at room temperature (22-24°C). This equipment was completely under the control of AutoPatch.exe and operator intervention was only made when there was a requirement to refill the drug reservoirs or to prevent the loss of a cell due to a technical error. Cells with an Rseries greater than 18 MΩ were discounted from the experiment.
Qualification stages prior to perfusion and drug application ensured that the observed current met the criteria for the experiment. Only those cells with an IK > 500 pA were used for experiments. Cells were continuously perfused with external solution at a flow rate of 1.8-2 ml/minute. […] Online analysis of the hKv1.5 current during the application of compounds was performed by the AutoPatch™ software. Voltage-step protocols and analysis of data was performed as described for conventional electrophysiology.
Electrophysiology voltage-step protocols and analysis of data was performed as follows. Data was sampled at 5kHz, and filtered with a -3 dB bandwidth of 2.5kHz. Cells were held at a voltage of -80mV. Currents were evoked to a voltage step for 1000ms in duration at 0mV every 5s. Currents were analysed using Pulsefit software (v8.54, HEKA, Germany), with the total charge measured during the whole of the voltage step. All other plots were produced using Igor Pro (WaveMetrics).

[2] = target: T1, human Kv1.5 (Homo sapiens, UniProt P22460); experiment: Kv1.5 Rb+ Efflux Assay; assay type: cell-based; settings: inhibition of 86Rb+ efflux through Kv1.5; cells stably transfected with human Kv1.5; 10 point concentration response curves n=2; normalised to 2.5mM 4 amino-pyridine block
T1 construct: expressed in transfected cells
T1 sequence (P22460 whole entry): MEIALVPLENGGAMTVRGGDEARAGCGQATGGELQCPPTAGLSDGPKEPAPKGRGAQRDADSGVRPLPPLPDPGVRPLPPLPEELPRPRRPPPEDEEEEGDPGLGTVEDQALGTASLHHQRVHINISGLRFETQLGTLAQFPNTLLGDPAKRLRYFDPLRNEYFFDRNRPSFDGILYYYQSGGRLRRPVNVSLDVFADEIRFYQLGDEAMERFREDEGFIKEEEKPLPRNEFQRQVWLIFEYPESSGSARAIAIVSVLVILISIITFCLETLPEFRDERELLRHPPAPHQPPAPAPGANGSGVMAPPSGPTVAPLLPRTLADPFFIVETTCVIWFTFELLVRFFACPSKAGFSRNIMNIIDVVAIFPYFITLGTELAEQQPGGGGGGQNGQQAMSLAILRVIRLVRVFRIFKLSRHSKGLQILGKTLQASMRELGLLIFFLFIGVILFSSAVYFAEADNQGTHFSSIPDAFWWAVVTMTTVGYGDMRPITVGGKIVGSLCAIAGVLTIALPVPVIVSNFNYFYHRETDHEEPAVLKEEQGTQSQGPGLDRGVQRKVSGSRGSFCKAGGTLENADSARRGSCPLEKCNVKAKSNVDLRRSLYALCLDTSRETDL
Protocol: The pore of a potassium channel is permeable to other monovalent cations such as Rb^+ and Tl^+. Analysis of cellular efflux of potassium channel permeable ions enables potassium channel activity to be monitored directly. Cells stably transfected with cDNA for human Kv1.5 (in pEF6::VA-His-TOPO) were grown in Dulbecco's Modified Eagle media (DMEM) alpha supplemented with 10% Fetal Calf Serum (FCS), 20 µl/ml penicillin (5000U/ml) streptomycin (5000µg/ml), 10µl/ml [100x] glutamine, and blasticidin (7.5µg/ml). Cells were dispensed into 96 well cellstar TC plates and allowed to grow until a confluent monolayer was visible. On the morning of the assay run, cold media was aspirated using the TECAN plate washer, and a 50µl media spike containing 2µCi/ml (37kBq/ml) ^86Rb^+ added to each well containing cells using the Shallow-Well Matrix Platemate. Plates were placed in a incubator at 37°C for a minimum of 3 hours. Unloaded ^86Rb^+ in the "hot" media was aspirated and each well washed 4x250µl with Earls Balanced Salt Solution (EBSS) which contained 5mM KCl, 140mM NaCl, 2mM CaCl2, 1mM MgSO4, 10mM HEPES, and 5mM glucose, pH 7.4, 290-300 mOsm. These cells were then pre-incubated with 50µl of EBSS +/- test compounds for 10 minutes at room temperature. After the 10 minute incubation, 50µl of modified EBSS which contained 145mM KCl, 2mM CaCl2, 1mM MgSO4, 10mM HEPES, 5mM glucose, pH 7.4, 290-300 mOsm, was added, and the cells were incubated for a further 10 minutes at room temperature. The high KCl EBSS was used to depolarise cells to a membrane potential that would activate Kv1.5 channels. After the final incubation 80µl/100µl of the reaction from each well was transferred to equivalent wells in a Packard "Optiplate" white 96 well plate and counted in a Packard TopCount liquid scintillation counter by Cerenkov emission. Percentage inhibition ^86Rb^+ efflux through Kv1.5 was calculated by normalisation to 2.5mM 4 amino-pyridine control block of Kv1.5. Alternatively cells were loaded with ^85Rb^+ and quantified by atomic absorption spectroscopy. IC50 determinations were derived from 10 point concentration response curves n=2 using the method described above. Data was fitted as variable slope sigmoidal fit using Graphpad Prism (V3.02) software.

Sequence of hKv1.5 (P22460 whole entry): as above

SMILES	inhibition at 1 µM [1]	IC50 [2]	% Inhibition at 1µM [1]
c1ccc(-c2csc3ncnc(NCc4ccco4)c23)cc1 [Example 83, Furan-2-ylmethyl-(5-phenyl-thieno[2,3-d]pyrimidin-4-yl)-amine]	21.9%	0.07 µM	–
c1ccc(-c2csc3ncnc(NCC4CC4)c23)cc1 [Example 84, Cyclopropylmethyl-(5-phenyl-thieno[2,3-d]pyrimidin-4-yl)-amine]	15.3%	0.8 µM	–
c1ccc(-c2csc3ncnc(NCc4cccs4)c23)cc1 [Example 85, (5-Phenyl-thieno[2,3-d]pyrimidin-4-yl)-thiophen-2-ylmethyl-amine]	24.2%	4.21 µM	–
c1ccc(CNc2ncnc3scc(-c4ccccc4)c23)cc1 [Example 86, Benzyl-(5-phenyl-thieno[2,3-d]pyrimidin-4-yl)-amine]	46%	4.36 µM	–
C=CCNc1ncnc2scc(-c3ccccc3)c12 [Example 87, Allyl-(5-phenyl-thieno[2,3-d]pyrimidin-4-yl)-amine]	3.4%	5.14 µM	–
CN(Cc1ccco1)c1ncnc2scc(-c3ccccc3)c12 [Example 88, Furan-2-ylmethyl-methyl-(5-phenyl-thieno[2,3-d]pyrimidin-4-yl)-amine]	26.4%	6.82 µM	–
c1ccc(-c2csc3ncnc(NCC4CCCCC4)c23)cc1 [Example 89, Cyclohexylmethyl-(5-phenyl-thieno[2,3-d]pyrimidin-4-yl)-amine]	–	8.1 µM	42.2%
c1ccc(CCNc2ncnc3scc(-c4ccccc4)c23)cc1 [Example 90, Phenethyl-(5-phenyl-thieno[2,3-d]pyrimidin-4-yl)-amine]	–	10.1 µM	–
c1ccc(-c2csc3ncnc(NC4CCCCC4)c23)cc1 [Example 91, Cyclohexyl-(5-phenyl-thieno[2,3-d]pyrimidin-4-yl)-amine]	–	> 30 µM	–
c1coc(CNc2ncnc3scc(-c4cccs4)c23)c1 [Example 92, Furan-2-ylmethyl-(5-thiophen-2-yl-thieno[2,3-d]pyrimidin-4-yl)-amine]	27.6%	1.91 µM	–
O=[N+]([O-])c1ccc(CNc2ncnc3scc(-c4cccs4)c23)cc1 [Example 93, (4-Nitro-benzyl)-(5-thiophen-2-yl-thieno[2,3-d]pyrimidin-4-yl)-amine]	44%	> 30 µM	–
COc1cc(CNc2ncnc3scc(-c4cccs4)c23)cc(OC)c1OC [Example 94, (5-Thiophen-2-yl-thieno[2,3-d]pyrimidin-4-yl)-(3,4,5-trimethoxy-benzyl)-amine]	19.4%	> 30 µM	–
c1csc(-c2csc3ncnc(NCC4CC4)c23)c1 [Example 95, Cyclopropylmethyl-(5-thiophen-2-yl-thieno[2,3-d]pyrimidin-4-yl)-amine]	32.6%	4.51 µM	–
CC(C)CNc1ncnc2scc(-c3cccs3)c12 [Example 96, Isobutyl-(5-thiophen-2-yl-thieno[2,3-d]pyrimidin-4-yl)-amine]	22.9%	6.32 µM	–
c1ccc(CNc2ncnc3scc(-c4cccs4)c23)cc1 [Example 97, Benzyl-(5-thiophen-2-yl-thieno[2,3-d]pyrimidin-4-yl)-amine]	43.3%	6.53 µM	–
c1csc(CNc2ncnc3scc(-c4cccs4)c23)c1 [Example 98, Thiophen-2-ylmethyl-(5-thiophen-2-yl-thieno[2,3-d]pyrimidin-4-yl)-amine]	–	6.95 µM	21.0%
C=CCNc1ncnc2scc(-c3cccs3)c12 [Example 99, Allyl-(5-thiophen-2-yl-thieno[2,3-d]pyrimidin-4-yl)-amine]	17.5%	7.53 µM	–
CN(Cc1ccco1)c1ncnc2scc(-c3cccs3)c12 [Example 100, Furan-2-ylmethyl-methyl-(5-thiophen-2-yl-thieno[2,3-d]pyrimidin-4-yl)-amine]	19.9%	9.71 µM	–
CCN1CCCC1CNc1ncnc2scc(-c3ccccc3)c12 (stereo not shown) [Example 102, (1-Ethyl-pyrrolidin-2-ylmethyl)-(5-phenyl-thieno[2,3-d]pyrimidin-4-yl)-amine]	–	> 30 µM	–
c1ccc(-c2csc3ncnc(NCCCn4ccnc4)c23)cc1 [Example 104, (3-Imidazol-1-yl-propyl)-(5-phenyl-thieno[2,3-d]pyrimidin-4-yl)-amine]	–	> 30 µM	–
COCCNc1ncnc2scc(-c3ccccc3)c12 [Example 113, (2-Methoxy-ethyl)-(5-phenyl-thieno[2,3-d]pyrimidin-4-yl)-amine]	–	5.27 µM	–
c1ccc(-c2csc3ncnc(NCC4CCCO4)c23)cc1 (stereo not shown) [Example 114, (5-Phenyl-thieno[2,3-d]pyrimidin-4-yl)-(tetrahydro-furan-2-ylmethyl)-amine]	–	5.18 µM	–
c1ccc(-c2csc3ncnc(NCC4OCCO4)c23)cc1 [Example 116, [1,3]Dioxolan-2-ylmethyl-(5-phenyl-thieno[2,3-d]pyrimidin-4-yl)-amine]	–	6.16 µM	–
Fc1ccc(-c2csc3ncnc(NCc4ccccn4)c23)cc1 [Example 123, [5-(4-Fluoro-phenyl)-thieno[2,3-d]pyrimidin-4-yl]-pyridin-2-ylmethyl-amine]	–	0.05 µM	–
Fc1ccc(-c2csc3ncnc(NCc4ccco4)c23)cc1 [Example 124, [5-(4-Fluoro-phenyl)-thieno[2,3-d]pyrimidin-4-yl]-furan-2-ylmethyl-amine]	–	1.16 µM	–
Cc1csc2ncnc(NCCc3ccc(Cl)cc3)c12 [Example 125, [2-(4-Chloro-phenyl)-ethyl]-(5-methyl-thieno[2,3-d]pyrimidin-4-yl)-amine]	–	6.91 µM	–
Cc1ccc(-c2csc3ncnc(NCCc4ccccc4)c23)cc1 [Example 130, Phenethyl-(5-p-tolyl-thieno[2,3-d]pyrimidin-4-yl)-amine]	–	8.05 µM	–
